Results taken from US9371295B2, “Compounds for use in the treatment of disorders that are ameliorated by inhibition of HDAC” (IRBM—Science Park S.p.A., priority 2012, dated 2016).

Tests used:
[1] = tested on: γ-globin mRNA in K562 cells; assay: γ-globin mRNA in K562 cells by quantitative RT-PCR; type: cell-based, human; details: 6 days
Description: The expression of the genes encoding for γ-globin was evaluated by quantitative RT-PCR. The analyses were carried out on material extracted from cells treated for 6 days in the conditions indicated.
Total RNA was extracted from cells by the use of TRI Reagent RNA isolation Reagent (Sigma Aldrich). All solutions and laboratory equipment were certified RNAse free. Following the manufacturers instructions, 1 mL of the reagent was added to 5*10^6 cells. After a 3 minute incubation at room temperature, 20 μg of glycogen and 200 μL of chloroform were added. The samples were then centrifuged and the aqueous phase recovered. This phase was diluted with one volume of isopropanol and centrifuged at 4° C. to let the RNA precipitate. After a washing step with methanol, the extracted RNA was dried and then resuspended in RNAse free water. The purified RNAs were stored at −80° C.
In order to determine the quality of the extracted RNA, electrophoresis runs on 0.8% agarose gel were carried out. The amount of the recovered RNA was quantified by its absorbance at 260 nm. Protein contamination quality control was carried out by ensuring that the 260/280 nm absorbance ratio was greater than 1.8
cDNA production from the extracted RNA was carried out as per ImProm-II™ Reverse Transcription System (Promega). 0.5 μg di RNA was retro-transcribed by using random hexamer. The produced cDNA was then stored at −80° C. until use.
The expression of the genes encoding for γ-globin was evaluated by quantitative RT-PCR, using the following primer and probe oligonucleotides (FAM=6-carboxy fluorescein, TAMRA=6-carboxy-N,N,N′,N′-tetramethylrhodamine):
For real-time PCR analysis we used as reference gene the endogenous control human GAPDH kit (Applied Biosystems).
(§1) The erythroid differentiation of K562 cells was investigated following treatment with selected compounds of the invention. The effect on cell proliferation was first determined for all tested molecules by culture of K562 cells in the presence of increasing concentration of the compounds. The cell number per sample was then determined after 3, 4 and 5 days. The IC50 values reported in Table 3 for the antiproliferative effect were calculated from the concentration of the compounds necessary to decrease the cell number to 50% of the values obtained in control untreated K562 cell cultures, after a 5 days culture period. Erythroid differentiation was measured by benzidine staining after 5, 6 and 7 days of cell culture and by quantitative reverse transcriptase polymerase-chain reaction (RT-qPCR) to quantify the expression of γ-globin mRNA. Different concentrations of tested compounds were employed because of their differing antiproliferative effects; accordingly, concentrations were chosen to maximize the erythroid induction effect without extensive reduction of cell viability. In Table 3 the % of benzidine positive cells and the increase in γ-globin mRNA assayed by RT-qPCR after 6 days of culture period are reported.

HDAC1 = target: T1, HDAC1 (Homo sapiens, UniProt Q13547); assay: HDAC1 assay (Fluor-de-Lys fluorescent deacetylase assay); type: biochemical; details: read-out: hHDAC IC50
T1 construct: made in house
T1 sequence (Q13547 whole entry): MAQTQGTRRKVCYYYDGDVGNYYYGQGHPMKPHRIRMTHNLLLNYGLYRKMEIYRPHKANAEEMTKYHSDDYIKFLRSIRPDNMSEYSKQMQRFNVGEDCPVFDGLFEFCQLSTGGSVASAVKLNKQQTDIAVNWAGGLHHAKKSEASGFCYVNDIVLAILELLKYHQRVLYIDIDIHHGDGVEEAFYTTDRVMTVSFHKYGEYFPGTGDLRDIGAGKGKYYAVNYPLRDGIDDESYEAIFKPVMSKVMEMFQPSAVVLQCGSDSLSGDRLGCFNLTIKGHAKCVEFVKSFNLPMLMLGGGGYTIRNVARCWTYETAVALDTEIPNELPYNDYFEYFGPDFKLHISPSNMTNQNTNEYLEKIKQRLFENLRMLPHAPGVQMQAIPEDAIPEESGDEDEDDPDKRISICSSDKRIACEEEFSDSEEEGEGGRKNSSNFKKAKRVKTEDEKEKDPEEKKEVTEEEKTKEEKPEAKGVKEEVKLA
How it was run: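 Serially diluted compounds were pre-incubated with purified FLAG-tagged HDAC1 (1-2 nM final; from transfected HeLa cells) or HeLa nuclear extract, then given the Fluor-de-Lys acetyl-lysine substrate/developer; deacetylation read as fluorescence. Reactions were stopped with TSA (3 uM final).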

K562 cells = assay: Erythroid differentiation of K562 cells by benzidine staining; type: cell-based, human
Description: The biological activity of the compounds of the present application was evaluated by examining the capacity to modulate the expression of γ-globin genes in the human K562 cell line, which is capable of differentiating in the erythroid manner by expressing genes for γ-globin if treated with modifiers of the biological response that are suitable for the purpose (Bianchi et al, J. Haematol., 113, 4, p. 951-961, 2001). The human K562 cells were cultured in RPMI 1640 medium (Sigma, St Louis, Mo., USA) supplemented with 10% foetal bovine serum (FBS; Analitical de Mori, Milan, Italy), 100 units/mL penicillin and 100 μg/mL streptomycin. Cell growth was determined according to cell number/ml, using a cell counter (Coulter Electronics, Hialeah, Fla., USA). For experiments, K562 cell cultures were initiated at 3×10^4/mL and the chemical inducers at the indicated concentrations added. Following 3-5 days incubation without a medium change erythroid differentiation was determined by staining the cells in a solution containing 0.2% benzidine in 0.5 M glacial acetic acid, 10% H2O2. Benzidine positivity indicates the presence of intracellular Hb.
as §1
Table 4 reports induction of erythroid differentiation in K562 cells treated with an optimized concentration of the compound 2 in comparison with known inducers. Compound 2 is able to stimulate an increase of the proportion of benzidine-positive (hemoglobin producing) K562 cells. This is associated with an increase of the expression of γ-globin mRNA.

[2] = Intrinsic clearance in pooled human liver microsomes; type: in vitro ADME; details: pH 7.4

## CCC(=O)CCCCC[C@H](NC(=O)C1CN(C)C1)c1ncc(-c2cc3ccccc3nc2OC)o1 [Compound 2, (S)-N-(1-(5-(2-methoxyquinolin-3-yl)oxazol-2-yl)-7-oxononyl)-1-methylazetidine-3-carboxamide]
[1]; 70 nM
  γ-globin mRNA content (fold induction): 1.75 fold induction
HDAC1
  IC50: < 100 nM
K562 cells; 70 nM
  % of benzidine positive cells after 6 days: 10%
K562 cells; optimized concentration, mean ± SD of six experiments
  Benzidine positive cells (%): 25 ± 3.5%
[2]
  microsomal CLint at 1 μM: 13 µL/min/mg

## CCC(=O)CCCCC[C@H](NC(=O)C(=O)N1CCN(C)CC1)c1ncc(-c2cc3ccccc3nc2OC)o1 [Compound 37, (S)-N-(1-(5-(2-methoxyquinolin-3-yl)oxazol-2-yl)-7-oxononyl)-2-(4-methylpiperazin-1-yl)-2-oxoacetamide]
[1]; 1600 nM
  γ-globin mRNA content (fold induction): 7.84 fold induction
HDAC1
  IC50: < 100 nM
K562 cells; 1600 nM
  % of benzidine positive cells after 6 days: 16%

## CCC(=O)CCCCC[C@H](NC(=O)C1(F)CN(C)C1)c1ncc(-c2cc3ccccc3nc2OC)o1 [Compound 67, (S)-3-fluoro-N-(1-(5-(2-methoxyquinolin-3-yl)oxazol-2-yl)-7-oxononyl)-1-methylazetidine-3-carboxamide]
[1]; 1800 nM
  γ-globin mRNA content (fold induction): 5.08 fold induction
HDAC1
  IC50: < 100 nM
K562 cells; 1800 nM
  % of benzidine positive cells after 6 days: 12%

## CCC(=O)CCCCC[C@H](NC(=O)Cn1nc(C)nc1C)c1ncc(-c2cc3ccccc3nc2OC)o1 [Compound 80, (S)-2-(3,5-dimethyl-1H-1,2,4-triazol-1-yl)-N-(1-(5-(2-methoxyquinolin-3-yl)oxazol-2-yl)-7-oxononyl)acetamide]
[1]; 200 nM
  γ-globin mRNA content (fold induction): 1.03 fold induction
HDAC1
  IC50: < 100 nM
K562 cells; 200 nM
  % of benzidine positive cells after 6 days: 1%

## CCC(=O)CCCCC[C@H](NC(=O)c1cnc(CN2CCCC2)s1)c1ncc(-c2cc3ccccc3nc2OC)o1 [Compound 82, (S)-N-(1-(5-(2-methoxyquinolin-3-yl)oxazol-2-yl)-7-oxononyl)-2-(pyrrolidin-1-ylmethyl)thiazole-5-carboxamide]
[1]; 260 nM
  γ-globin mRNA content (fold induction): 0.96 fold induction
HDAC1
  IC50: < 100 nM
K562 cells; 260 nM
  % of benzidine positive cells after 6 days: 4.5%

## CCC(=O)CCCCC[C@H](NC(=O)C1CN(C)C1)c1ncc(-c2cc3ccccc3n(C)c2=O)o1 [Compound 92, (S)-1-methyl-N-(1-(5-(1-methyl-2-oxo-1,2-dihydroquinolin-3-yl)oxazol-2-yl)-7-oxononyl)azetidine-3-carboxamide]
[1]; 40 nM
  γ-globin mRNA content (fold induction): 1.24 fold induction
HDAC1
  IC50: < 100 nM
K562 cells; 40 nM
  % of benzidine positive cells after 6 days: 8%
[2]
  microsomal CLint at 1 μM: < 5 µL/min/mg

## CCC(=O)CCCCC[C@H](NC(=O)CCN(C)C)c1ncc(-c2cc3ccccc3n(C)c2=O)o1 [Compound 106, (S)-3-(dimethylamino)-N-(1-(5-(1-methyl-2-oxo-1,2-dihydroquinolin-3-yl)oxazol-2-yl)-7-oxononyl)propanamide]
[1]; 60 nM
  γ-globin mRNA content (fold induction): 2.01 fold induction
HDAC1
  IC50: < 100 nM
K562 cells; 60 nM
  % of benzidine positive cells after 6 days: 8.5%

## CCC(=O)CCCCC[C@H](NC(=O)C(C)(C)N(C)C)c1ncc(-c2cc3ccccc3n(C)c2=O)o1 [Compound 107, (S)-2-(dimethylamino)-2-methyl-N-(1-(5-(1-methyl-2-oxo-1,2-dihydroquinolin-3-yl)oxazol-2-yl)-7-oxononyl)propanamide]
[1]; 40 nM
  γ-globin mRNA content (fold induction): 1.87 fold induction
HDAC1
  IC50: < 100 nM
K562 cells; 40 nM
  % of benzidine positive cells after 6 days: 2%

## CCC(=O)CCCCC[C@H](NC(=O)C1CCN(C)CC1)c1ncc(-c2cc3ccccc3n(C)c2=O)o1 [Compound 109, (S)-1-methyl-N-(1-(5-(1-methyl-2-oxo-1,2-dihydroquinolin-3-yl)oxazol-2-yl)-7-oxononyl)piperidine-4-carboxamide]
[1]; 60 nM
  γ-globin mRNA content (fold induction): 1.31 fold induction
HDAC1
  IC50: < 100 nM
K562 cells; 60 nM
  % of benzidine positive cells after 6 days: 1.5%

## CCC(=O)CCCCC[C@H](NC(=O)c1cncs1)c1ncc(-c2cc3ccccc3n(C)c2=O)o1 [Compound 110, (S)-N-(1-(5-(1-methyl-2-oxo-1,2-dihydroquinolin-3-yl)oxazol-2-yl)-7-oxononyl)thiazole-5-carboxamide]
[1]; 300 nM
  γ-globin mRNA content (fold induction): 1.19 fold induction
HDAC1
  IC50: < 100 nM
K562 cells; 300 nM
  % of benzidine positive cells after 6 days: 5%

## CCC(=O)CCCCC[C@H](NC(=O)C1(N(C)C)CCCC1)c1ncc(-c2cc3ccccc3n(C)c2=O)o1 [Compound 111, (S)-1-(dimethylamino)-N-(1-(5-(1-methyl-2-oxo-1,2-dihydroquinolin-3-yl)oxazol-2-yl)-7-oxononyl)cyclopentanecarboxamide]
[1]; 60 nM
  γ-globin mRNA content (fold induction): 2.51 fold induction
HDAC1
  IC50: < 100 nM
K562 cells; 60 nM
  % of benzidine positive cells after 6 days: 6%
